Entries after “also recorded” stand apart in the source; their conditions may differ.
Columns and labels:
HBV = assay: Anti-hepatitis B assay: extracellular HBV DNA by TaqMan PCR from HepG2 2.2.15 cells; assay type: cell-based, Hepatitis B virus (wild-type ayw1 strain); settings: for Percentage virus inhibition: HBV, HepG2 2.2.15 cells, six days
Excerpt: (§1) The pure cannabis cannabinoid CBD of FIG. 2 was subjected to a modified anti-hepatitis B assay. [Korba B E, Gerin J L, Use Of A Standardized Cell Culture Assay To Assess Activities Of Nucleoside Analogs Against Hepatitis B Virus Replication, Antiviral Res, 19:55-70 (1992); Korba B E, Milman G., A Cell Culture Assay For Compounds Which Inhibit Hepatitis B Virus Replication, Antiviral Res 1991; 15:217-28]. The modifications allowed use in real time quantitative polymerase chain reaction (PCR) (TaqMan) to measure extracellular HBV DNA copy number associated with virions released from HepG2 2.2.15 cells. The HepG2 2.2.15 cell line is a stable cell line producing high levels of the wild-type ayw1 strain of HBV. Antiviral compounds blocking any later step of viral replication such as transcription, translation, pregenomeencapsidation, reverse transcription, particle assembly, and release can be identified and characterized using this cell line. In brief, HepG2 2.2.15 cells are plated in 96-well microtiter plates. Only the interior wells were utilized to reduce “edge effects” observed during cell culture; the exterior wells were filled with complete medium to help minimize sample evaporation. After incubation with 5% CO2 atmosphere at 37° C. for 16-24 h, the confluent monolayer of HepG2 2.2.15 cells was washed and the medium was replaced with complete medium containing test compounds at a single concentration of 10 μM. Three days later, the culture medium was replaced with fresh medium and test compounds at a single concentration of 10 μM. Six days following the initial administration of the test compounds, the cell culture supernatant was collected, treated with pronase and DNAse, and then used in a real-time quantitative TaqMan PCR assay. Antiviral activity was determined by calculating the reduction in HBV DNA levels compared to untreated virus control samples. Compound cytotoxicity was determined using MTS (CellTiter 96 Reagent, Promega) to measure cell viability as described above.

[1] = Compound cytotoxicity (MTS cell viability) in the anti-hepatitis B assay; assay type: cell-based; settings: human, HepG2 2.2.15 cells (stable HBV-producing line), HBV assay, HepG2 2.2.15 cells
Excerpt: as §1

HepG2 2.2.15 cells = assay: as above; assay type: cell-based; settings: cells used to culture HBV
Excerpt: as §1

HCVcc = assay: Anti hepatitis C activity assay: HCVcc infectivity in Huh7.5 cells, luciferase readout, single dose; assay type: cell-based, Hepatitis C virus
Method: (§2) Huh7.5 cells are grown in Dulbecco's modified essential media (DMEM), 10% fetal bovine serum (FBS), 1% penicillin-streptomycin (pen-strep), 1% Non-essential amino acids (NEAA) in a 5% CO2 incubator at 37° C. Huh7.5 cells were seeded at 1×10^4 cells per well into 96-well plates according to Southern Research Institute standard format. The test article was serially diluted with DMEM plus 5% FBS. The diluted compound in the amount of 50 μl was mixed with equal volume of cell culture-derived HCV (HCVcc), then applied to appropriate wells in the plate. Human interferon alpha-2b (rIFNα-2b) was included as a positive control compound. After 72 hr incubation at 37° C., the cells were lysed for measurement of luciferase activity using Renilla Luciferase Assay System (Promega) according to manufacturer's instruction. The number of cells in each well were determined by CytoTox-1 reagent (Promega). Test articles were tested with 6 serial dilution in triplicate to derive, if applicable, IC50 and IC90 (concentration inhibiting HCVcc infectivity by 50% and 90%, respectively), TC50 (concentration decreasing cell viability by 50%) and SI (selective index: TC50/IC50) values. In the replicon assay, Sub-confluent cultures of the ET line were plated out into 96-well plates that are dedicated for the analysis of cell numbers (cytotoxicity) or antiviral activity and the next day drugs were added to the appropriate wells. Cells were processed 72 hours later when the cells were still sub-confluent. After six half-log serial dilutions of the compound, the applicable EC50 (concentration inhibiting HCV replicon by 50%), EC90 (concentration inhibiting HCV replicon by 90%), IC50 (concentration decreasing cell viability by […]) and SI (selective index: […]) values were derived. HCV replicon levels are assessed as replicon derived Luc activity. The toxic concentration of drug that reduced cell numbers was assessed by the CytoTox-1 cell proliferation assay (Promega), a fluorometric assay of cell numbers (and cytotoxicity). […]

[2] = Cytotoxicity (CytoTox-1 cell number) in the HCVcc assay; assay type: cell-based; settings: human, Huh7.5 cells infected with HCVcc; HCVcc assay, Huh7.5 cells; CBD at 10 μM
Method: (§3) Huh7.5 cells are grown in Dulbecco's modified essential media (DMEM), 10% fetal bovine serum (FBS), 1% penicillin-streptomycin (pen-strep), 1% Non-essential amino acids (NEAA) in a 5% CO2 incubator at 37° C. Huh7.5 cells were seeded at 1×10^4 cells per well into 96-well plates according to Southern Research Institute standard format. The test article was serially diluted with DMEM plus 5% FBS. The diluted compound in the amount of 50 μl was mixed with equal volume of cell culture-derived HCV (HCVcc), then applied to appropriate wells in the plate. Human interferon alpha-2b (rIFNα-2b) was included as a positive control compound. After 72 hr incubation at 37° C., the cells were lysed for measurement of luciferase activity using Renilla Luciferase Assay System (Promega) according to manufacturer's instruction. The number of cells in each well were determined by CytoTox-1 reagent (Promega). […] HCV replicon levels are assessed as replicon derived Luc activity. The toxic concentration of drug that reduced cell numbers was assessed by the CytoTox-1 cell proliferation assay (Promega), a fluorometric assay of cell numbers (and cytotoxicity). […]

Huh7.5 cells = assay: as above; assay type: cell-based; settings: cells used to culture HCV
Method: as §3

hepatitis C virus = assay: Dose-response assay against hepatitis C virus (EC50); assay type: cell-based; settings: for EC50: Hepatitis C virus, read-out: ES50 (EC50 against hepatitis C virus)
Method: as §2

[3] = Cytotoxicity (CC50) in the HCV dose-response assay; assay type: cell-based; settings: human, Huh7.5 cells
Method: as §3

SMILES | Percentage virus inhibition (HBV; CBD at single dose 10 (title uM, row head pM)) | Activity against HBV in vitro / inhibition of viral replication (in words) (HBV; in vitro, single-dose assay) | cytotoxicity at 6 days, 10 µM ([1]; CBD at 10 (title uM, row head pM)) | Cytotoxicity against HepG2 2.2.15 cells (in words) (HepG2 2.2.15 cells) | Percentage virus inhibition (HCVcc; HCVcc, CBD at single concentration 10 μM, Huh7.5 cells, 72 hr, 10 µM) | inhibition at 10 µM (HCVcc; Hepatitis C virus, Huh7.5, 72 h, HCVcc, CBD at single concentration 10 μM, Huh7.5 cells, 72 hr, read-out: Percentage virus inhibition) | Activity against HCV in vitro / inhibition of viral replication (in words) (HCVcc; in vitro, single-dose assay) | cytotoxicity at 72 h, 10 µM [2] | Toxicity against Huh7.5 cells (in words) (Huh7.5 cells) | EC50 (hepatitis C virus) | Inhibition of the HCV virus in the dose-response assay (in words) (hepatitis C virus; dose-response assay (Table 2)) | CC50 at 72 h [3] | Percentage virus inhibition (HBV; Lamivudine at 2 (row head pM)) | cytotoxicity at 6 days, 2 µM (printed pM) ([1]; Lamivudine at 2 (row head pM))
C=C(C)[C@@H]1CCC(C)=C[C@H]1c1c(O)cc(CCCCC)cc1O [CBD, Cannabidiol] | 0% | not against HBV; also recorded: not active | 65.7% | significant cytotoxicity | 84.6% | 86.4% | active against HCV | 2.7% | minimal toxicity | 3160 nM | dose-dependent inhibition | 15.7 ± 0.25 µM |  | 
Nc1ccn([C@@H]2CS[C@H](CO)O2)c(=O)n1 [Lamivudine, reference compound] |  |  |  |  |  |  |  |  |  |  |  |  | 97.7% | 0%
CC(C)OC(=O)[C@H](C)N[P@](=O)(OC[C@H]1O[C@@H](n2ccc(=O)[nH]c2=O)[C@](C)(F)[C@@H]1O)Oc1ccccc1 [Sofosbuvir, reference compound] |  |  |  |  |  |  |  |  |  | 55 ± 10.4 nM |  | > 10 µM |  | 

Reference: patent publication US10912740B2, “Treating hepatitis C with cannabidiol” (Vilotos Pharmaceuticals, Inc., priority 2017, dated 2021)
